Paper PMC7172207 (Bioorganic & Medicinal Chemistry Letters, 2019)

Columns and labels:
[1] = test system: DENV2; assay: Immunofluorescence assay of DENV2 infectivity; format: cell-based, Dengue virus type 2 (strain 16681); settings: for rate of NS4B-positive cells: Vero E6, DENV2-infected, 96 h
[2] = test system: DENV2; assay: Anti-DENV2 activity in human lung epithelial A549 cells; format: cell-based, Dengue virus type 2; settings: DENV2 MOI 0.01, 120 h

CC1(C)[C@@H](O[C@H]2O[C@H](C(=O)O)[C@@H](O)[C@H](O)[C@H]2O[C@@H]2O[C@H](C(=O)O)[C@@H](O)[C@H](O)[C@H]2O)CC[C@]2(C)[C@H]3C(=O)C=C4[C@@H]5C[C@@](C)(C(=O)O)CC[C@]5(C)CC[C@@]4(C)[C@]3(C)CC[C@@H]12 [Compound 1, Glycyrrhizic acid, reference compound]
TI (CC50/IC50) ([1]; Vero E6 cells): ˃12.3

COC(=O)[C@H](CCSC)NC(=O)[C@H]1O[C@@H](O[C@H]2[C@@H](O[C@H]3CC[C@]4(C)[C@H]5C(=O)C=C6[C@@H]7C[C@@](C)(C(=O)N[C@@H](CCSC)C(=O)OC)CC[C@]7(C)CC[C@@]6(C)[C@]5(C)CC[C@H]4C3(C)C)O[C@H](C(=O)N[C@@H](CCSC)C(=O)OC)[C@@H](O)[C@@H]2O)[C@H](O)[C@@H](O)[C@@H]1O [Compound 6]
TI (CC50/IC50) ([1]; Vero E6 cells): ˃22.2

CC[C@H](C)[C@H](NC(=O)[C@H]1O[C@@H](O[C@H]2[C@@H](O[C@H]3CC[C@]4(C)[C@H]5C(=O)C=C6[C@@H]7C[C@@](C)(C(=O)N[C@H](C(=O)O)[C@@H](C)CC)CC[C@]7(C)CC[C@@]6(C)[C@]5(C)CC[C@H]4C3(C)C)O[C@H](C(=O)N[C@H](C(=O)O)[C@@H](C)CC)[C@@H](O)[C@@H]2O)[C@H](O)[C@@H](O)[C@@H]1O)C(=O)O [Compound 13]
anti-DENV2 activity in A549 cells (in words) [2]: potent anti-DENV2 activity
rate of NS4B-positive cells ([1]; 0.1 μM compound): 37.2%
rate of NS4B-positive cells ([1]; 1 μM compound): 29.4%
rate of NS4B-positive cells ([1]; 10 μM compound): 1.6%

CC1(C)[C@@H](O[C@H]2O[C@H](C(=O)N[C@@H](Cc3ccccc3)C(=O)O)[C@@H](O)[C@H](O)[C@H]2O[C@@H]2O[C@H](C(=O)N[C@@H](Cc3ccccc3)C(=O)O)[C@@H](O)[C@H](O)[C@H]2O)CC[C@]2(C)[C@H]3C(=O)C=C4[C@@H]5C[C@@](C)(C(=O)N[C@@H](Cc6ccccc6)C(=O)O)CC[C@]5(C)CC[C@@]4(C)[C@]3(C)CC[C@@H]12 [Compound 14]
anti-DENV2 activity (in words) ([1]; Vero E6 cells, CPE test and NS4B-positive cells): dropped the anti-DENV activity
